Read-outs that look alike come from different tables or passages of the source.
Experiments:
[1] = test system: NO production in LPS-stimulated BV2 cells; assay: Inhibition of NO production in LPS-stimulated BV2 cells (Griess reaction); format: cell-based; conditions: read-out: Inhibitory effects on NO in LPS-induced BV-2, IC50
Description: BV2 microglial cells were cultured in DMEM containing 10% fetal bovine serum, 100 IU/mL penicillin, and 100 μg/mL streptomycin at 37 ℃ with 5% CO2. Then, the cells were placed in 96-well microplates and treated with different compounds at 1–8 concentrations (5, 10, 30, 50, 100, 200 μM) for 1 h. Next, the cells were treated with 1 μg/mL LPS for 24 h to detect the NO (nitric oxide) levels in culture supernatants. After the Griess reaction (incubated at 37 ℃ with 5% CO2 for 0.5 h), the absorbance of cells was measured with a microplate reader (BioTek Company, Winooski, VT, USA) at […], repeated three times, and its IC50 value was calculated.

[2] = Cytotoxicity on BV2 cells, CCK8 method; format: cell-based; conditions: mouse, BV2 microglial cells, CCK8, 24 h treatment, 5-200 μM, read-out: Cytotoxic activities IC50
Description: The cytotoxicity assay was performed with a modified CCK8 method. First, BV2 microglial cells were cultured with 96-well microplates (10^4 cells/well in […] medium) for 24 h. Then, the cells were treated with different concentrations (5, 10, 30, 50, 100, 200 μM) of compounds. After the cells were incubated for 24 h, added 10 μL CCK8 solution to each well and incubated for 2 h in a 5% CO2 humidifier at 37 ℃. The absorbance was recorded at 450 nm with a microplate reader (BioTek Company, Winooski, VT, USA), repeating three times, and its IC50 value was calculated.

[3] = Mus musculus, BV-2, compound 1 h then 1 μg/mL LPS 24 h

| SMILES | IC50 [1, 3] | IC50 ([1]; compound 1 h then 1 μg/mL LPS 24 h) | IC50 at 24 h [2] |
| --- | --- | --- | --- |
| CCC(C)C(=O)O[C@@H]1[C@H](OC(=O)C(C)C)[C@@H](OC(=O)C(C)C)[C@H](O)[C@@H](O)[C@@H]1OC(C)=O (relative stereo) [Compound 2, myoinositol-1,2-isobutyryloxy-3-(2-methylbutyrate)-4-acetate] | 31.7 ± 2.71 µM | – | > 100 µM |
| CCC(C)C(=O)O[C@@H]1[C@@H](O)[C@H](O)[C@H](OC(=O)C(C)CC)[C@H](OC(=O)C(C)CC)[C@H]1O (relative stereo) [Compound 5, myoinositol-2,3,6-(2-methylbutyrate)] | 11.2 ± 0.14 µM | – | > 100 µM |
| CCC(C)C(=O)O[C@@H]1[C@H](OC(=O)C(C)CC)[C@@H](O)[C@H](O)[C@@H](O)[C@@H]1OC(C)=O (relative stereo) [Compound 6, myoinositol-2,3-(2-methylbutyrate)-4-acetate] | 23.3 ± 0.74 µM | – | > 100 µM |
| CCC(C)C(=O)O[C@@H]1[C@H](O)[C@@H](O)[C@H](O)[C@@H](OC(=O)C(C)CC)[C@@H]1OC(C)=O (relative stereo) [Compound 7, myoinositol-1,3-(2-methylbutyrate)-2-acetate] | 14.5 ± 1.22 µM | – | > 100 µM |
| CNC(=N)NCCC[C@H](N)C(=O)O [NMMA, reference compound] | – | 1.67 ± 0.24 µM | – |

Continued, in another order:

| IC50 [1, 3] | IC50 ([1]; compound 1 h then 1 μg/mL LPS 24 h) | SMILES | IC50 at 24 h [2] |
| --- | --- | --- | --- |
| 24.3 ± 1.82 µM | – | CCC(C)C(=O)O[C@@H]1[C@H](OC(C)=O)[C@@H](OC(=O)C(C)CC)[C@H](O)[C@@H](O)[C@@H]1OC(=O)C(C)C (relative stereo) [Compound 1, myoinositol-1,3-(2-methylbutyrate)-2-acetate-4-isobutyryloxy] | > 100 µM |
| > 100 µM | – | CCC(C)C(=O)O[C@H]1[C@@H](OC(=O)C(C)CC)[C@H](OC(C)=O)[C@@H](O)[C@H](OC(=O)C(C)CC)[C@H]1OC(C)=O (relative stereo) [Compound 3, myoinositol-1,4-acetate-2,3,5-(2-methylbutyrate)] | > 100 µM |
| > 100 µM | – | CCC(C)C(=O)O[C@H]1[C@@H](OC(=O)C(C)CC)[C@H](OC(=O)C(C)CC)[C@@H](O)[C@H](OC(=O)C(C)C)[C@H]1OC(C)=O (relative stereo) [Compound 4, myoinositol-1,2,3-(2-methylbutyrate)-4-acetate-5-isobutyryloxy] | > 100 µM |
| 31 ± 0.92 µM | – | CCC(C)C(=O)O[C@@H]1[C@@H](OC(=O)C(C)CC)[C@H](O)[C@@H](O)[C@H](O)[C@@H]1OC(=O)C(C)CC (relative stereo) [Compound 8, myoinositol-2,3,6-(2-methylbutyrate)] | > 100 µM |

— publication PMC9503535, “Inositol Derivatives with Anti-Inflammatory Activity from Leaves of Solanum capsicoides Allioni” (Molecules, 2022)
